Tests used:
[1] = molecular target: T1, JNK3 (Homo sapiens, UniProt P53779); test: JNK3 Assay (HTRF, JNK-3/GST-ATF2); type: biochemical; settings: JNK3 kinase, GST-ATF2 substrate, 15 μM ATP solution, 20 min at 37° C.
T1 construct: Biotech, Vitry
Description: The assay was performed on a Cybio pipetting system in the 384-well plate format. The final assay volume was 30 μl, comprising 10 μl of a probe (an extract or a pure substance-to-be-tested), 10 μl of an enzym-subtrate mixture (JNK-3/GST-ATF2) and 10 μl ATP solution. After 20 min incubation at 37° C. 50 μl HTRF abtibody mixture (XL665-anti-GST/(Eu)cryptat anti-P-ATF2) were added. The emission intensity of the energy transfer and of Eu at 665 and 615 nm, resp., were measured after 120 min at room temperature and stimulation of the probes at 340 nm in a Victor2® (Wallac).
Buffer I for diluting JNK3, GST-ATF2, ATP:
Buffer II for diluting HTRF reagents:
Each plate included 16 positiv controls (maximum energy transfer, buffer I instead of probe), 8 blank controls (minimal energy transfer, buffer 11 instead of ATP) and 8 wells containing a 200 μM EDTA solution.
The results were calculated as follows:
Signal Ration: SR=(intensity(665 nm)/intensity(615 nm)) Blank Correction: Delta F(%)=[…] Inhibition: Inhibition (%)=100×[1−(Delta F(Probe)/Delta F(max))

[2] = Physico chemical properties: solubility; type: physicochemical; settings: solvents in which the compound is soluble

T1 sequence (P53779 whole entry): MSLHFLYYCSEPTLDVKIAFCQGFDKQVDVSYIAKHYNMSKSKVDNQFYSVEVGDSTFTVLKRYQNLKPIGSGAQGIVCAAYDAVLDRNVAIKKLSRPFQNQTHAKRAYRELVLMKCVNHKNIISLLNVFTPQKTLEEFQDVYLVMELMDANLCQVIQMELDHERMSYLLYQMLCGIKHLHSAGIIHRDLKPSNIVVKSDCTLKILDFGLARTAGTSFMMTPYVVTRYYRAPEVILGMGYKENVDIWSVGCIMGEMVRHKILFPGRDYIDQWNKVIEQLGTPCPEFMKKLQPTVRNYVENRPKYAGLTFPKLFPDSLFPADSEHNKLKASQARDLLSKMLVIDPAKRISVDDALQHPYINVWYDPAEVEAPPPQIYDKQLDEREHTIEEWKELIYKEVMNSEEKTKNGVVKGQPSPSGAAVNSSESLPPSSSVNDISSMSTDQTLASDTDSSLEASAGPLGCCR

Row | IC50 [1] [µM] | Solubility [2] | SMILES
1 | 0.5 | Methanol, DMSO | CCCCCCCCCCCc1cc(O)cc(O)c1C(=O)OC(CCC)CCCCCCCc1cc(OS(=O)(=O)O)cc(OS(=O)(=O)O)c1 (stereo not drawn) [Spinosulfate A]
2 | 10 | – | CCCCCCCCCCCc1cc(O)cc(O)c1C(=O)OC(CCC)CCCCCCCc1cc(O)cc(O)c1 (stereo not drawn) [Spinosulfate B]
